# From patent US11529311B2, “Method of using nebulized alcohol for analgesia” (BN Intellectual Properties, Inc., priority 2021, dated 2022)
# What was measured:
# [1] = Protocol: Example 1: A first patient treatment example is that of an adult experiencing pain from multiple neck injuries and replaced vertebrae who was treating pain using 60 mg Oxycontin® (30 mg in morning and night) and 6 doses of Percocet® daily as needed before ethanol treatment. The patient's opioid usage history spanned 11 years. The first patient also took Ambien® at night to promote sleep.
# The first patient takes nebulized alcohol in the morning and at bedtime (about 3-4 inhalations each time), wakes in the night to use the bathroom, and occasionally takes nebulized alcohol during the night.
# [2] = adult, 1-2 inhalations
# Excerpt: Example 2: A second patient treatment is of an adult experiencing sinus headaches using nebulized ethanol solution.
# [3] = remark: listed apart in the source
# Protocol: Example 3: A third patient experienced acute pain from a chronic back injury which occurred during a car accident approximately 40 years earlier. The patient experienced acute pain for about 8 hours, requiring assistance to lower themself to sit in a chair, to stand up from the chair, and to walk about.
# Remark: listed apart in the source
# [4] = over the course of ethanol treatment
# [5] = patient report, result of reduced Oxycontin doses
# [6] = patient report, nebulized alcohol morning and bedtime
substance,measurement,setting,value
Ethyl alcohol [nebulized ethanol],reported levels of pain,"[1]; adult male, 11 years of opioid use, over the course of ethanol treatment, about 3-4 inhalations morning and bedtime",significantly lower
same,Oxycontin usage,"[1]; after 6 months of ethanol therapy, 60 mg daily before treatment",10 mg/day
same,Percocet usage,"[1]; after 6 months of ethanol therapy, 6 doses daily as needed before treatment",no Percocet® during the day
same,opioid usage,[1]; [4],reduced
same,"physical stamina, physical performance (kidney and bowel function), and mental acuity",[1]; [4],improved
same,"alertness, attention, and mental acuity",[1]; [5],increased
same,bowel function,[1]; [5],increased bowel function
same,mobility,[1]; [5],greater mobility (able to resume dance activities)
same,posture,[1]; [5],improved posture (able to hold head in a vertical position)
same,renal function,[1]; [5],increased renal function (no more water retention/bloating)
same,quality of sleep,[1]; [6],increased
same,usage of sleep aids to counteract discomfort and pain from injuries,[1]; [6],reduced
same,"rate of achieving pain relief compared with other treatments (sinus rinse, other pain medications)",[2],significantly faster
same,pain relief after repeated treatment,[3]; 4 inhalations per treatment,complete relief
same,pain relief after initial session,[3]; 5 inhalations per treatment,complete pain relief
same,time until pain recurred after the initial session,[3]; 5 inhalations per treatment,approximately 12 hours
same,time to complete remission of pain,[3]; in vivo,48 h
same,time to remission relative to time with other analgesics prior to ethanol therapy,[3]; in vivo,approximately 50%
same,"duration of brain effects (euphoria, and so forth)",persons in the absence of significant pain,about 2 hours
same,reported feeling (side effects),persons who take nebulized alcohol for pain,"moderate sleepiness or drowsiness, but not “buzzed” or “intoxicated”"
